The CheMixHub ionic liquid set
± gives the uncertainty stated by the source.

Assay: xn = mol fraction of the nth substance listed

CCCC[N+](CCCC)(CCCC)CCCC.[Cl-] + O=C(O)[C@@H]1CCCN1
100 kPa
Settings	electrical conductivity, 313.15 K [S/m]	electrical conductivity, 323.15 K [S/m]	electrical conductivity, 333.15 K [S/m]	electrical conductivity, 343.15 K [S/m]	electrical conductivity, 353.15 K [S/m]	viscosity, 313.15 K [mPa·s]	viscosity, 323.15 K [mPa·s]	viscosity, 333.15 K [mPa·s]	viscosity, 343.15 K [mPa·s]	viscosity, 353.15 K [mPa·s]
x1 = 0.875	0.0343	0.0411	0.065	0.0965	0.127	389 ± 41	172 ± 18	97.5 ± 9.9	54.2 ± 5.5	32.1 ± 3.2
x1 = 0.8889	0.0137	0.0249	0.0423	0.0735	0.108	901 ± 96	306 ± 32	171 ± 17	85 ± 9	53.8 ± 5.4
x1 = 0.9	0.0446	0.0612	0.0869	0.11	0.142	1051 ± 110	534 ± 56	233 ± 24	131 ± 13	77.3 ± 7.8

CCCC[n+]1ccn(C)c1.[Br-] + O=C(O)c1cccnc1 + O
viscosity [mPa·s], 100 kPa
Settings	293.15 K	298.15 K	303.15 K	308.15 K	313.15 K	318.15 K
x2 = 0, x1 = 0.0009002	1.033 ± 0.032	0.918 ± 0.031	0.823 ± 0.031	0.753 ± 0.031	0.676 ± 0.031	0.619 ± 0.031
x2 = 0, x1 = 0.001799	1.057 ± 0.032	0.938 ± 0.031	0.84 ± 0.031	0.758 ± 0.031	0.689 ± 0.031	0.631 ± 0.031
x2 = 0, x1 = 0.002696	1.069 ± 0.032	1 ± 0.031	0.905 ± 0.031	0.795 ± 0.031	0.749 ± 0.031	0.68 ± 0.031

CC[n+]1ccn(C)c1.[Cl-] + O=C[C@H](O)[C@@H](O)[C@H](O)[C@H](O)CO
373 K, 100 kPa
Settings	viscosity [mPa·s]
x2 = 0	36 ± 14
x2 = 0.0419	66 ± 26

CC[n+]1ccn(C)c1.[Cl-] + O=C[C@H](O)[C@@H](O)[C@H](O)[C@H](O)CO + CC#N
373 K, 100 kPa
Settings	viscosity [mPa·s]
x2 = 0, x1 = 0.359	3 ± 1
x2 = 0.002991, x1 = 0.3578	3 ± 1
x2 = 0.01533, x1 = 0.3535	4
x2 = 0.0316, x1 = 0.3476	5 ± 2
x2 = 0.04909, x1 = 0.3413	6 ± 2

CC[P+](CC)(CC)CCOC.O=S(=O)([N-]S(=O)(=O)C(F)(F)F)C(F)(F)F + O=S(=O)([N-]S(=O)(=O)C(F)(F)F)C(F)(F)F.[Li+]
101.33 kPa
Settings	electrical conductivity, 298.2 K [S/m]	electrical conductivity, 312.2 K [S/m]	electrical conductivity, 361.3 K [S/m]	viscosity, 298.2 K [mPa·s]	viscosity, 355.3 K [mPa·s]
x2 = 0.25	1 ± 0.1	–	–	170 ± 6	17 ± 1
x2 = 0.39	–	0.8 ± 0.01	1.5 ± 0.1	–	–

CCCC[N+](CCCC)(CCCC)CCCC.[Cl-] + OCC(O)CO
100 kPa, x1 = 0.333
Settings	electrical conductivity [S/m]	viscosity [mPa·s]
293.15 K	0.0303 ± 0.003	870 ± 320
303.15 K	0.0527 ± 0.0053	500 ± 150
313.15 K	0.0885 ± 0.0089	298 ± 70
323.15 K	0.144 ± 0.014	184 ± 31
333.15 K	0.228 ± 0.023	117 ± 13

CC[n+]1ccn(C)c1.[Cl-] + OCC(O)CO
Settings	viscosity [mPa·s]
303.15 K, 100 kPa, x1 = 0.333	126.9 ± 2.8
313.15 K, 101 kPa, x1 = 0.667	135.5 ± 6.2

[Cl-].c1ccc(C[P+](c2ccccc2)(c2ccccc2)c2ccccc2)cc1 + OCC(O)CO
101 kPa, x2 = 0.9412
Settings	electrical conductivity [S/m]	viscosity [mPa·s]
298.1 K	0.006977 ± 1e-09	–
307.07 K	–	654 ± 31
322.36 K	–	238 ± 7.1
322.96 K	0.03314 ± 1e-09	–
332.98 K	0.04535 ± 1e-09	–
338.06 K	0.05407 ± 1e-08	–
343.13 K	0.0593 ± 1e-09	–
348.08 K	0.075 ± 0.0001	–
